Data reported in paper PMC11785709, “Angelica gigas Nakai (Korean Dang-gui) Root Alcoholic Extracts in Health Promotion and Disease Therapy – active Phytochemicals and In Vivo Molecular Targets” (Pharmaceutical Research, 2025).
Where “and” joins values, the source holds several entries; their conditions need not be identical. Equal entries are not always repeated.

Experiments:
[1] = test system: AR; ERα; settings: cited from earlier work; for mode of action on AR and ERα: responsive cancer cell culture models
[2] = biological target: T1, c-MET (Y1235D) (Homo sapiens, UniProt P08581, Y1235D); assay: Reaction Biology kinase activity inhibition; type: biochemical; settings: initial screening
T1 construct: purchased Reaction Biology
Description: (§1) The second screening was the Reaction Biology® (Malvern, PA) kinase activity inhibition tests, which screened for more than 600 protein kinases and lipid kinases, using miniaturized radioisotope-based assay platform with γ-^33P-ATP, followed by confirmation with IC50 kinase profiling service with 5 concentrations of test compound (i.e., DOH and DA) with curve fitting.

[3] = biological target: T2, PKCzeta (Homo sapiens, UniProt Q05513); assay: Reaction Biology kinase activity inhibition; type: biochemical; settings: initial screening
T2 construct: purchased Reaction Biology
Description: as §1

[4] = biological target: T3, PKCtheta (Homo sapiens, UniProt Q04759); assay: Reaction Biology kinase activity inhibition; type: biochemical; settings: initial screening
T3 construct: purchased Reaction Biology
T3 sequence (Q04759 whole entry): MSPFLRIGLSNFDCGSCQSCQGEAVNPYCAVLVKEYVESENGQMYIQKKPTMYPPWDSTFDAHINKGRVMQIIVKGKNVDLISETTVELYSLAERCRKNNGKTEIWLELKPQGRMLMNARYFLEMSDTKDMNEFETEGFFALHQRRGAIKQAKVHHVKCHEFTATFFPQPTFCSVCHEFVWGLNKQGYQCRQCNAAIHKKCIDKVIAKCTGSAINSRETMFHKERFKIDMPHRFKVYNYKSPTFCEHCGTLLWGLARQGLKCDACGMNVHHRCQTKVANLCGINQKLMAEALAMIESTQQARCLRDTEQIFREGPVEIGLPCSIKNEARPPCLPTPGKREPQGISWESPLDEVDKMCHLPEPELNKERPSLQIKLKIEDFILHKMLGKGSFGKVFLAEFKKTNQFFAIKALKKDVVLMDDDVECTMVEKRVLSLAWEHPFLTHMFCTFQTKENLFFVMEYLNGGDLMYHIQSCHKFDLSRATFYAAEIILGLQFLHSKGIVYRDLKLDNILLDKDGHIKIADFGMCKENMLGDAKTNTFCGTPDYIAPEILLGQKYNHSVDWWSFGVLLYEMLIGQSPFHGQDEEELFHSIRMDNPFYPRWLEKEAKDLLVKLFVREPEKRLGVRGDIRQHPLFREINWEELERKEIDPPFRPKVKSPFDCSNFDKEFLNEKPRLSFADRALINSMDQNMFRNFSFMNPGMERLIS
Description: as §1

[5] = biological target: T4, LRRK2 (G2019S) (Homo sapiens, UniProt Q5S007, G2019S); assay: Reaction Biology kinase activity inhibition; type: biochemical; settings: initial screening
T4 construct: purchased Reaction Biology
Description: as §1

[6] = biological target: T5, STK21/CIT (Homo sapiens, UniProt O14578); assay: Reaction Biology kinase activity inhibition; type: biochemical; settings: initial screening
T5 construct: purchased Reaction Biology
Description: as §1

[7] = biological target: T6, Aurora B (Homo sapiens, UniProt Q96GD4); assay: Reaction Biology kinase activity inhibition; type: biochemical; settings: initial screening
T6 construct: purchased Reaction Biology
Description: as §1

[8] = biological target: T7, CK2a (Homo sapiens, UniProt P68400); assay: Reaction Biology kinase activity inhibition; type: biochemical; settings: initial screening
T7 construct: purchased Reaction Biology
T7 sequence (P68400 whole entry): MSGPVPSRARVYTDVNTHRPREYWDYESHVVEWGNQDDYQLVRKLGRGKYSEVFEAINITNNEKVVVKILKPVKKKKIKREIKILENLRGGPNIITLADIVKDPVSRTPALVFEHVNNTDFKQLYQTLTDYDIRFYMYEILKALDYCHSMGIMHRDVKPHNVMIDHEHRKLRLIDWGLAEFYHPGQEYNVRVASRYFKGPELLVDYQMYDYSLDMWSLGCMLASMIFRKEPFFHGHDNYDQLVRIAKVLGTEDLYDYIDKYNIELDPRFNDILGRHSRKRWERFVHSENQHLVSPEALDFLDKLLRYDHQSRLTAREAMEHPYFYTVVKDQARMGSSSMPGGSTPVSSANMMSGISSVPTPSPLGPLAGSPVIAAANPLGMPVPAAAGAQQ
Description: as §1

[9] = biological target: T8, CAMK1d (Homo sapiens, UniProt Q8IU85); assay: Reaction Biology kinase activity inhibition; type: biochemical; settings: initial screening
T8 construct: purchased Reaction Biology
T8 sequence (Q8IU85 whole entry): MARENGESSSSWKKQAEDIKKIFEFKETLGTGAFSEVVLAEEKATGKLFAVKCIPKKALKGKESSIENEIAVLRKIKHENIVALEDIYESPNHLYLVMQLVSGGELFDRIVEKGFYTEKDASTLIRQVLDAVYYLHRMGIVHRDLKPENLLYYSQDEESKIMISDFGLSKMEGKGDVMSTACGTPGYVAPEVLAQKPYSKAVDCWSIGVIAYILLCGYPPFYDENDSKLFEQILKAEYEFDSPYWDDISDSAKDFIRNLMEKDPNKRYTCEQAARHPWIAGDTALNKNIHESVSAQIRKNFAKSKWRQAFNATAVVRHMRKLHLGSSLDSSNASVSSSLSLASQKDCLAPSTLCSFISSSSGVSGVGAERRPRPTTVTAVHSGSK
Description: as §1

[10] = biological target: T9, BRSK1 (Homo sapiens, UniProt Q8TDC3); assay: Reaction Biology kinase activity inhibition; type: biochemical; settings: initial screening
T9 construct: purchased Reaction Biology
T9 sequence (Q8TDC3 1-778): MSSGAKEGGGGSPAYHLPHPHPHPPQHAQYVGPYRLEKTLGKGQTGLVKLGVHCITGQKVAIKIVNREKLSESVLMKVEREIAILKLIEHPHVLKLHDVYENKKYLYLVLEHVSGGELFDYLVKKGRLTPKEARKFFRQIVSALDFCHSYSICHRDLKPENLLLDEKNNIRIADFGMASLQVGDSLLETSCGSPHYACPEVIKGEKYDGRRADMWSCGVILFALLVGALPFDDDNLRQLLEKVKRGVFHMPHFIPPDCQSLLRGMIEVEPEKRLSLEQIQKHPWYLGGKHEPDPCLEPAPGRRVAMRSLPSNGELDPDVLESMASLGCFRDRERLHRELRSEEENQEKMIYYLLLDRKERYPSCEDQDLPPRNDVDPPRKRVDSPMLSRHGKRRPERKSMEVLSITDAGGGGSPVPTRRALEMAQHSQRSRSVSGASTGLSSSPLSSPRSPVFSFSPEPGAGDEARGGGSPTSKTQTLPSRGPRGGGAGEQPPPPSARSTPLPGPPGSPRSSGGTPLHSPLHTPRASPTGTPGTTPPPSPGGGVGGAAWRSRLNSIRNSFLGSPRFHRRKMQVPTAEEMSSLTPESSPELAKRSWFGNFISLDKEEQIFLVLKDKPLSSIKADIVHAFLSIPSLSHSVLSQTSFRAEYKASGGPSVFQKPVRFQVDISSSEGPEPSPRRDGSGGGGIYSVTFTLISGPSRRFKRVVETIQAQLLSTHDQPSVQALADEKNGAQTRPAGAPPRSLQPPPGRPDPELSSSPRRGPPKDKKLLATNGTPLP
Description: as §1

[11] = biological target: T10, MELK (Homo sapiens, UniProt Q14680); assay: Reaction Biology kinase activity inhibition; type: biochemical; settings: initial screening
T10 construct: purchased Reaction Biology
T10 sequence (Q14680 whole entry): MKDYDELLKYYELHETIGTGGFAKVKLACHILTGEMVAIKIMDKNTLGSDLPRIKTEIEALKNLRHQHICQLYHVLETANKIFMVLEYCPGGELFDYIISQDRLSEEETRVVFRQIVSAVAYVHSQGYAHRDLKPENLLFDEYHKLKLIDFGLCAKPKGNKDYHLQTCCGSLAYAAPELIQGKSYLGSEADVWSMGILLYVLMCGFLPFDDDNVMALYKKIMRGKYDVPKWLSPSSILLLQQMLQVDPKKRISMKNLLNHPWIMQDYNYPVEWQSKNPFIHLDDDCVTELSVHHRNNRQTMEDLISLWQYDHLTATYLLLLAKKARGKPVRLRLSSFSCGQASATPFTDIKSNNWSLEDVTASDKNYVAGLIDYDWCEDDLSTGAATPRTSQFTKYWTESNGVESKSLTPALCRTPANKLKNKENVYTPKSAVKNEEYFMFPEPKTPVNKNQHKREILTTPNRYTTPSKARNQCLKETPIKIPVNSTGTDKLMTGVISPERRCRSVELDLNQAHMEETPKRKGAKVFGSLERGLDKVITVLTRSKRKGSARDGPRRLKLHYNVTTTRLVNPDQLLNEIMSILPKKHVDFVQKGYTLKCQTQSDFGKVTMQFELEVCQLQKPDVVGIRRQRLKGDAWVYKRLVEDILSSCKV
Description: as §1

[12] = biological target: T11, CDK7/cyclin H (Homo sapiens, UniProt P50613); assay: Reaction Biology kinase activity inhibition; type: biochemical; settings: initial screening
T11 construct: purchased Reaction Biology
T11 sequence (P50613 whole entry): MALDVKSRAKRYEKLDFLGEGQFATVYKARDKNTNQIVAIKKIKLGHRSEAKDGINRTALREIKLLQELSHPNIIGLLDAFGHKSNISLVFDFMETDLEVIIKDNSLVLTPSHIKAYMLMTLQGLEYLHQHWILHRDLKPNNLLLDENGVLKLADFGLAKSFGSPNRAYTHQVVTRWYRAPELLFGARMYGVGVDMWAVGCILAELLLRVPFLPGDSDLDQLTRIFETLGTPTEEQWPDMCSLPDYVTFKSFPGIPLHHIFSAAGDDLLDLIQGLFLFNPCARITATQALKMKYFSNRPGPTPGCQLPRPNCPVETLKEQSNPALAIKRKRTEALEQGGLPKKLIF
T11 sequence (P51946 whole entry partner): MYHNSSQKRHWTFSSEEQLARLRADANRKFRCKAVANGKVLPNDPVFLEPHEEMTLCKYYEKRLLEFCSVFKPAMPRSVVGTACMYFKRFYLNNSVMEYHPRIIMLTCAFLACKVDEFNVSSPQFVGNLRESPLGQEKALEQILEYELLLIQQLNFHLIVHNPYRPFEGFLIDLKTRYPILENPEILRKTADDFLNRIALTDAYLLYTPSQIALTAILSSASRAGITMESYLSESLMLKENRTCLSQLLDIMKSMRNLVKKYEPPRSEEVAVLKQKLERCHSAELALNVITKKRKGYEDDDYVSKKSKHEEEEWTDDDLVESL
T11 sequence (P51948 whole entry partner): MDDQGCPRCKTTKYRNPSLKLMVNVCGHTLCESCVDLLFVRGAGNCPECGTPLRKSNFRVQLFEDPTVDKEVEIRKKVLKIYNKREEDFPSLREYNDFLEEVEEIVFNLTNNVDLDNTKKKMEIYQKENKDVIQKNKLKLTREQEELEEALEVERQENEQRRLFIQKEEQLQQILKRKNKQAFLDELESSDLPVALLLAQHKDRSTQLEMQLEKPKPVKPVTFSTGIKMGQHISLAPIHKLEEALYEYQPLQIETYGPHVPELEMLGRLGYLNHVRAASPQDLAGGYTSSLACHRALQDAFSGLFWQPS
Description: as §1

[13] = biological target: T12, JNK2 (Homo sapiens, UniProt P45984); assay: Reaction Biology kinase activity inhibition; type: biochemical; settings: initial screening
T12 construct: purchased Reaction Biology
T12 sequence (P45984 whole entry): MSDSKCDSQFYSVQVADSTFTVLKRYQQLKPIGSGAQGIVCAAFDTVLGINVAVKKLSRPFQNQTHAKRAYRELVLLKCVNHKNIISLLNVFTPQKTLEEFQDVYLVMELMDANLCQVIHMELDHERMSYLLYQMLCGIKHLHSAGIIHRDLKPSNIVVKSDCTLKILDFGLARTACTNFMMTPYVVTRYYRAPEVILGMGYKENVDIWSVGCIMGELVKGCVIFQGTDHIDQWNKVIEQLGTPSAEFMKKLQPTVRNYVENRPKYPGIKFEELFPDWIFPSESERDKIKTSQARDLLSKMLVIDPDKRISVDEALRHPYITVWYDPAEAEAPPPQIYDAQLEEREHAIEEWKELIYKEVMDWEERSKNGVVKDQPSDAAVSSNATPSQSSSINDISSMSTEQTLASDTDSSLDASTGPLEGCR
Description: as §1

[14] = test system: PKN1-TECR (Tex1Pex10); assay: Reaction Biology kinase activity inhibition; type: biochemical; settings: initial screening
Description: as §1

[15] = biological target: T13, LKB1 (Homo sapiens, UniProt Q15831); assay: Reaction Biology kinase activity inhibition; type: biochemical; settings: activity screening, DOH at 50 μM
T13 construct: purchased Reaction Biology (Malvern, PA)
Description: as §1

[16] = biological target: T14, CDK3/cyclin E (Homo sapiens, UniProt Q00526); assay: Reaction Biology kinase activity inhibition; type: biochemical; settings: initial screening
T14 construct: purchased Reaction Biology
Description: as §1

[17] = biological target: T15, PIM1 (Homo sapiens, UniProt P11309); assay: Reaction Biology kinase activity inhibition; type: biochemical; settings: initial screening
T15 construct: purchased Reaction Biology
T15 sequence (P11309 whole entry): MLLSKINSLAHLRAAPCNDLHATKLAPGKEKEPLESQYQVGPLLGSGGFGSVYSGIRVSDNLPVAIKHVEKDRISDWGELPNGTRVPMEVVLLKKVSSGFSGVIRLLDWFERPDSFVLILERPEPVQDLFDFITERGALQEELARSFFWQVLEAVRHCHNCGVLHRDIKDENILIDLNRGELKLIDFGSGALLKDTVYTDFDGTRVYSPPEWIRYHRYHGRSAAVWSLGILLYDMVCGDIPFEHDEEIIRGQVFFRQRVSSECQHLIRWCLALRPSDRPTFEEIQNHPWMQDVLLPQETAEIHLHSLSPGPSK
Description: as §1

[18] = biological target: T16, c-Kit (D816H) (Homo sapiens, UniProt P10721, D816H); assay: Reaction Biology kinase activity inhibition; type: biochemical; settings: initial screening
T16 construct: purchased Reaction Biology
T16 sequence (P10721 26-976 D816H): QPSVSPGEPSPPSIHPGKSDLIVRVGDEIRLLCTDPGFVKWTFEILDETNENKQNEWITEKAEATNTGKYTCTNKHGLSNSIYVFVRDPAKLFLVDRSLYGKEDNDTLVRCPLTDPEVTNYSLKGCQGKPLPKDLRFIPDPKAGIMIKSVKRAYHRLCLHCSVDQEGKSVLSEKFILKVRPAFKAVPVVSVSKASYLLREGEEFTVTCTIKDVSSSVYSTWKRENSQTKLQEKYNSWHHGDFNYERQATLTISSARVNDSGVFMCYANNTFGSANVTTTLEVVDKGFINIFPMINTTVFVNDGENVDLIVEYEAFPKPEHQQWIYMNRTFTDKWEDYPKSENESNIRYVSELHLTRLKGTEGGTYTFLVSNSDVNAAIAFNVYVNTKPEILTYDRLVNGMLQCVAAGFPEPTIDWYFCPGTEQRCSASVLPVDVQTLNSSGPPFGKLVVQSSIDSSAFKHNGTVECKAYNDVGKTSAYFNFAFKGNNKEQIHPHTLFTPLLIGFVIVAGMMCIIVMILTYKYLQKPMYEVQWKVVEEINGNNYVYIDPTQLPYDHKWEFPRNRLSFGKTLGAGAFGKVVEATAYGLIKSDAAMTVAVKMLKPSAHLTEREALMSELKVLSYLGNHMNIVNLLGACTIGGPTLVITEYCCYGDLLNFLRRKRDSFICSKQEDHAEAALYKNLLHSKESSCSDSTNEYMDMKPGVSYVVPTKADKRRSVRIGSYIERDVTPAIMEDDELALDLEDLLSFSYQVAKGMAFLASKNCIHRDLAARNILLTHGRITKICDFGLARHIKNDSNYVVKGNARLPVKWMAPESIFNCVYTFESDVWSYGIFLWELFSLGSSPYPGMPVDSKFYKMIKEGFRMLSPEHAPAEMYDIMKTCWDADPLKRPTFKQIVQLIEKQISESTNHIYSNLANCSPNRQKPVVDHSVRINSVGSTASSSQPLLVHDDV
Description: as §1

[19] = biological target: T17, STK32B/YANK2 (Homo sapiens, UniProt Q9NY57); assay: Reaction Biology kinase activity inhibition; type: biochemical; settings: initial screening
T17 construct: purchased Reaction Biology
Description: as §1

[20] = biological target: T18, CLK4 (Homo sapiens, UniProt Q9HAZ1); assay: Reaction Biology kinase activity inhibition; type: biochemical; settings: initial screening
T18 construct: purchased Reaction Biology
Description: as §1

[21] = test system: ALK-TFG; assay: Reaction Biology kinase activity inhibition; type: biochemical; settings: initial screening
Description: as §1

[22] = DOH (50 µM), Data 1 and Data 2, read-out: % Enzyme Activity (relative to DMSO controls)

Question: With `C/C=C(/C)C(=O)O[C@H]1Cc2cc3ccc(=O)oc3cc2OC1(C)C` [DA, decursinol angelate] as the molecule, how does the IC50 ([1]; antagonist/degrader) read?
Answer: ~5 µM

Question: What about the “mode of action on AR and ERα” value [1] of the same molecule?
Answer: antagonists/degraders

Question: What does the source list for `CC1(C)Oc2cc3oc(=O)ccc3cc2C[C@@H]1O` [DOH, decursinol]?
Answer: inhibition at 50 µM ([2]; DOH 50 µM): 30.7%; % Enzyme Activity (relative to DMSO controls) ([2]; DOH (50 µM), Data 1 and Data 2): 69.0%; remaining activity at 50 µM [2, 22]: 69.5%; inhibition at 50 µM ([3]; DOH 50 µM): 27.1%; remaining activity at 50 µM [3, 22]: 72.9%; inhibition at 50 µM ([4]; DOH 50 µM): 30.1%; % Enzyme Activity (relative to DMSO controls) ([4]; DOH (50 µM), Data 1 and Data 2): 69.2%; remaining activity at 50 µM [4, 22]: 70.5%; inhibition at 50 µM ([5]; DOH 50 µM): 26.8%; % Enzyme Activity (relative to DMSO controls) ([5]; DOH (50 µM), Data 1 and Data 2): 73.0%; remaining activity at 50 µM [5, 22]: 73.4%; inhibition at 50 µM ([6]; DOH 50 µM): 28.3%; % Enzyme Activity (relative to DMSO controls) ([6]; DOH (50 µM), Data 1 and Data 2): 71.1%; remaining activity at 50 µM [6, 22]: 72.2%; inhibition at 50 µM ([7]; DOH 50 µM): 36.2%; % Enzyme Activity (relative to DMSO controls) ([7]; DOH (50 µM), Data 1 and Data 2): 63.7%; remaining activity at 50 µM [7, 22]: 64%; inhibition at 50 µM ([8]; DOH 50 µM): 33%; % Enzyme Activity (relative to DMSO controls) ([8]; DOH (50 µM), Data 1 and Data 2): 66.2%; remaining activity at 50 µM [8, 22]: 67.8%; inhibition at 50 µM ([9]; DOH 50 µM): 27.1%; % Enzyme Activity (relative to DMSO controls) ([9]; DOH (50 µM), Data 1 and Data 2): 70.6%; remaining activity at 50 µM [9, 22]: 75.3%; inhibition at 50 µM ([10]; DOH 50 µM): 29.7%; % Enzyme Activity (relative to DMSO controls) ([10]; DOH (50 µM), Data 1 and Data 2): 69.5%; remaining activity at 50 µM [10, 22]: 71.1%; inhibition at 50 µM ([11]; DOH 50 µM): 35.2%; % Enzyme Activity (relative to DMSO controls) ([11]; DOH (50 µM), Data 1 and Data 2): 64.6%; remaining activity at 50 µM [11, 22]: 65%; inhibition at 50 µM ([12]; DOH 50 µM): 25.7%; % Enzyme Activity (relative to DMSO controls) ([12]; DOH (50 µM), Data 1 and Data 2): 73.9%; remaining activity at 50 µM [12, 22]: 74.8%; inhibition at 50 µM ([13]; DOH 50 µM): 29%; % Enzyme Activity (relative to DMSO controls) ([13]; DOH (50 µM), Data 1 and Data 2): 70.1%; remaining activity at 50 µM [13, 22]: 72%; DOH % Inhibition ([14]; DOH 50 µM): 27.6%; % Enzyme Activity (relative to DMSO controls) ([14]; DOH (50 µM), Data 1 and Data 2): 72.6% and 72.4%; inhibition of kinase activity [15]: no inhibition; inhibition at 50 µM ([16]; DOH 50 µM): 30.3%; % Enzyme Activity (relative to DMSO controls) ([16]; DOH (50 µM), Data 1 and Data 2): 69.4%; remaining activity at 50 µM [16, 22]: 70%; inhibition at 50 µM ([17]; DOH 50 µM): 38.5%; % Enzyme Activity (relative to DMSO controls) ([17]; DOH (50 µM), Data 1 and Data 2): 60.3%; remaining activity at 50 µM [17, 22]: 62.7%; inhibition at 50 µM ([18]; DOH 50 µM): 25.5%; % Enzyme Activity (relative to DMSO controls) ([18]; DOH (50 µM), Data 1 and Data 2): 66.8%; remaining activity at 50 µM [18, 22]: 82.2%; inhibition at 50 µM ([19]; DOH 50 µM): 31.1%; % Enzyme Activity (relative to DMSO controls) ([19]; DOH (50 µM), Data 1 and Data 2): 67.4%; remaining activity at 50 µM [19, 22]: 70.3%; inhibition at 50 µM ([20]; DOH 50 µM): 25.7%; % Enzyme Activity (relative to DMSO controls) ([20]; DOH (50 µM), Data 1 and Data 2): 74.0%; remaining activity at 50 µM [20, 22]: 74.8%; DOH % Inhibition ([21]; DOH 50 µM): 27.9%; % Enzyme Activity (relative to DMSO controls) ([21]; DOH (50 µM), Data 1 and Data 2): 75.7% and 68.5%; EC50 ([1]; read-out: AR, ERα agonist EC50): ~10 µM; mode of action on AR and ERα [1]: weak partial agonist activity
